What follows are molecules tested against Human Factor D (Homo sapiens (Human), UniProt P00746) (assay: Human Factor D Assay). Conditions: not given.
Sequence of Human Factor D (P00746 26-253): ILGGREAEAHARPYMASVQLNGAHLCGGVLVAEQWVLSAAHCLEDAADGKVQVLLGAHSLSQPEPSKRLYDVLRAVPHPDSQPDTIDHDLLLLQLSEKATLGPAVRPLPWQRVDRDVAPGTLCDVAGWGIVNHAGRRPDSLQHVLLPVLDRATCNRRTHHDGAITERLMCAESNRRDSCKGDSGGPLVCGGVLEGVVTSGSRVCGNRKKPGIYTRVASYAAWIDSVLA
Assay type: biochemical
Procedure, shortened: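 Serum-purified human Factor D (80 nM final) was preincubated with test compound at various concentrations for 5 min at room temperature in 50 mM Tris, 1M NaCl, pH 7.5. Z-L-Lys-SBzl and DTNB were then added at 100 μM each. IC50 came from nonlinear regression of reaction rates versus compound concentration.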
In the case of CC(=O)c1cn(CC(=O)N2C[C@H](F)C[C@H]2C(=O)NCc2cccnc2)c2ccc(-c3ccnnc3)cc12 [Compound 59, (2S,4R)-1-(2-(3-acetyl-5-(pyridazin-4-yl)-1H-indol-1-yl)acetyl)-4-fluoro-N-(pyridin-3-ylmethyl) pyrrolidine-2-carboxamide], the IC50 is reported as 1 to 10 µM.

Same assay, conditions: Human Factor D 80 nM, substrate Z-L-Lys-SBzl; read-out: IC50
CC(=O)c1cn(CC(=O)N2C[C@H](F)C[C@H]2C(=O)Nc2cccc3c2NC(=O)C(C)O3)c2ccc(-c3ccnnc3)cc12 (stereo partly drawn) [Compound 153, (2S,4R)-1-(2-(3-acetyl-5-(pyridazin-4-yl)-1H-indol-1-yl)acetyl)-4-fluoro-N-(2-methyl-3-oxo-3,4-dihydro-2H-benzo[b][1,4]oxazin-5-yl)pyrrolidine-2-carboxamide] was tested, and the IC50 was over 10 µM. With CC(=O)c1nn(CC(=O)N2[C@@H]3C[C@@H]3C[C@H]2C(=O)Nc2cccc(Br)n2)c2ccc(-c3cnc(C)nc3)cc12 [Compound 190, (1R,3S,5R)-2-(2-(3-acetyl-5-(2-methylpyrimidin-5-yl)-1H-indazol-1-yl)acetyl)-N-(6-bromopyridin-2-yl)-2-azabicyclo[3.1.0] hexane-3-carboxamide] the IC50 was under 1 µM. Work on NC(=O)c1nn(CC(=O)N2[C@@H]3C[C@@H]3C[C@H]2C(=O)Nc2cccc(-c3ccccc3Cl)c2F)c2ccc(-c3ccc(F)nc3)cc12 [Compound 13, 1-(2-((1R,3S,5R)-3-(2′-chloro-2-fluorobiphenyl-3-ylcarbamoyl)-2-azabicyclo[3.1.0]hexan-2-yl)-2-oxoethyl)-5-(6-fluoropyridin-3-yl)-1H-indazole-3-carboxamide] yielded an IC50 of under 1 µM. Cc1ccnn1-c1ccccc1NC(=O)[C@@H]1C[C@@H](F)CN1C(=O)Cn1nc(C(N)=O)c2cc(-c3ccnnc3)ccc21 [Compound 71, 1-(2-((2S,4R)-4-fluoro-2-(2-(5-methyl-1H-pyrazol-1-yl)phenylcarbamoyl)pyrrolidin-1-yl)-2-oxoethyl)-5-(pyridazin-4-yl)-1H-indazole-3-carboxamide] was tested, and the IC50 was over 10 µM.

Same assay, conditions: Human Factor D assay of Example 8; Table 2; read-out: IC50
Molecule COCCOCCNC(=O)c1ncc(-c2ccc3c(c2)c(C(C)=O)cn3CC(=O)N2C[C@H](F)C[C@H]2C(=O)Nc2cccc(-c3ccccc3Cl)c2F)cn1 [Compound 212, 5-(3-acetyl-1-(2-((2S,4R)-2-(2′-chloro-2-fluorobiphenyl-3-ylcarbamoyl)-4-fluoropyrrolidin-1-yl)-2-oxoethyl)-1H-indol-5-yl)-N-(2-(2-methoxyethoxy)ethyl)pyrimidine-2-carboxamide] has an IC50 of under 1 µM. Work on CC(=O)c1nn(CC(=O)N2C[C@H](F)C[C@H]2C(=O)Nc2cccc(-c3cc(C(N)=O)ccc3Cl)c2F)c2ccc(-c3cnc(C)nc3)cc12 [Compound 198, (2S,4R)-1-(2-(3-acetyl-5-(2-methylpyrimidin-5-yl)-1H-indazol-1-yl)acetyl)-N-(5′-carbamoyl-2′-chloro-2-fluorobiphenyl-3-yl)-4-fluoropyrrolidine-2-carboxamide] yielded an IC50 of under 1 µM. CC(=O)c1nn(CC(=O)N2C[C@H](F)C[C@H]2C(=O)Nc2cccc(Br)n2)c2ccc(-c3n[nH]c4ccsc34)cc12 [Compound 291, (2S,4R)-1-(2-(3-Acetyl-5-(1H-thieno[3,2-c]pyrazol-3-yl)-1H-indazol-1-yl)acetyl)-N-(6-bromopyridin-2-yl)-4-fluoropyrrolidine-2-carboxamide] showed an IC50 of under 1 µM. Work on Cc1ncc(-c2cc3c(s2)c(C(N)=O)nn3CC(=O)N2C[C@H](F)C[C@H]2C(=O)Nc2cccc(-c3ccccc3Cl)c2F)cn1 [Compound 314, 1-(2-((2S,4R)-2-((2′-Chloro-2-fluoro-[1,1′-biphenyl]-3-yl)carbamoyl)-4-fluoropyrrolidin-1-yl)-2-oxoethyl)-5-(2-methylpyrimidin-5-yl)-1H-thieno[3,2-c]pyrazole-3-carboxamide] yielded an IC50 of under 1 µM. With CC(=O)c1nn(CC(=O)N2C[C@H](F)C[C@H]2C(=O)Nc2cccc(Br)n2)c2ccc(-c3cnc4c(C#N)cnn4c3)cc12 [Compound 263, (2S,4R)-1-(2-(3-acetyl-5-(3-cyanopyrazolo[1,5-a]pyrimidin-6-yl)-1H-indazol-1-yl)acetyl)-N-(6-bromopyridin-2-yl)-4-fluoropyrrolidine-2-carboxamide] the IC50 was under 1 µM.

Same assay, conditions: Human Factor D, Table 3; read-out: IC50
For CC(=O)c1nn(CC(=O)N2C[C@H](F)C[C@H]2C(=O)Nc2cccc(OC(F)(F)F)c2F)c2ccc(-c3cnc(N)nc3)cc12 [Compound 563, (2S,4R)-1-(2-(3-Acetyl-5-(2-aminopyrimidin-5-yl)-1H-indazol-1-yl)acetyl)-4-fluoro-N-(2-fluoro-3-(trifluoromethoxy)phenyl)pyrrolidine-2-carboxamide], the IC50 was under 1 µM. In the case of NC(=O)c1nn(CC(=O)N2C[C@H](F)C[C@H]2C(=O)Nc2cccc(Br)n2)cc1-c1cnn(-c2ncc(F)cn2)c1 [Compound 729, 1-(2-((2S,4R)-2-((6-Bromopyridin-2-yl)carbamoyl)-4-fluoropyrrolidin-1-yl)-2-oxoethyl)-1′-(5-fluoropyrimidin-2-yl)-1H,1′H-[4,4′-bipyrazole]-3-carboxamide], the IC50 is reported as over 10 µM. CC(=O)c1nn(CC(=O)N2C[C@H](F)C[C@H]2C(=O)Nc2cccc(Br)n2)c2ccc(-c3cnc(C(N)=O)nc3)cc12 [Compound 599, 5-(3-Acetyl-1-(2-((2S,4R)-2-((6-bromopyridin-2-yl)carbamoyl)-4-fluoropyrrolidin-1-yl)-2-oxoethyl)-1H-indazol-5-yl)pyrimidine-2-carboxamide] showed an IC50 of under 1 µM. Work on CC(=O)c1cn(CC(=O)N2C[C@H](F)C[C@H]2C(=O)NCCCCc2ccccc2)c2ccc(-c3cnc4cc(C)nn4c3)cc12 [Compound 688, (2S,4R)-1-(2-(3-Acetyl-5-(2-methylpyrazolo[1,5-a]pyrimidin-6-yl)-1H-indol-1-yl)acetyl)-4-fluoro-N-(4-phenylbutyl)pyrrolidine-2-carboxamide] yielded an IC50 of under 1 µM. CC(=O)c1nn(CC(=O)N2C[C@H](F)C[C@H]2C(=O)Nc2cccc(Br)n2)c2ccc(-c3cnc(NS(C)(=O)=O)nc3)cc12 [Compound 556, (2S,4R)-1-(2-(3-Acetyl-5-(2-(methylsulfonamido)pyrimidin-5-yl)-1H-indazol-1-yl)acetyl)-N-(6-bromopyridin-2-yl)-4-fluoropyrrolidine-2-carboxamide] showed an IC50 of under 1 µM. Work on CC(=O)c1nn(CC(=O)N2[C@H](C(=O)Nc3cncc(C(F)(F)F)n3)C[C@@]3(C)C[C@@H]23)c2ccc(-c3cnc(C)nc3)cc12 [Compound 640, (1R,3S,5R)-2-(2-(3-acetyl-5-(2-methylpyrimidin-5-yl)-1H-indazol-1-yl)acetyl)-5-methyl-N-(6-(trifluoromethyl)pyrazin-2-yl)-2-azabicyclo[3.1.0] hexane-3-carboxamide] yielded an IC50 of under 1 µM. For CC(=O)c1nn(CC(=O)N2C[C@H]3C[C@H]3[C@H]2C(=O)Nc2ccn(CC(F)(F)F)n2)c2ccc(-c3cnc(C)nc3)cc12 [Compound 638, (1R,2S,5S)-3-(2-(3-Acetyl-5-(2-methylpyrimidin-5-yl)-1H-indazol-1-yl)acetyl)-N-(1-(2,2,2-trifluoroethyl)-1H-pyrazol-3-yl)-3-azabicyclo[3.1.0]hexane-2-carboxamide], the IC50 was under 1 µM.

Same assay, conditions: Table 3; Human Factor D 80 nM, substrate Z-L-Lys-SBzl; read-out: IC50 (Stars)
CC(=O)c1nn(CC(=O)N2C3CC[C@@H](C3)[C@H]2C(=O)Nc2cccc(Br)n2)c2ccc(-c3cnc(C)nc3)cc12 [Compound 475, (3S,4S)-2-(2-(3-Acetyl-5-(2-methylpyrimidin-5-yl)-1H-indazol-1-yl)acetyl)-N-(6-bromopyridin-2-yl)-2-azabicyclo[2.2.1]heptane-3-carboxamide] gave an IC50 of under 1 µM. Work on CC(=O)c1nn(CC(=O)N2[C@@H]3C[C@@H]3C[C@H]2C(=O)Nc2cncc(Br)n2)c2ccc(-c3cnc(N)nc3)cc12 [Compound 352, (1R,3S,5R)-2-(2-(3-Acetyl-5-(2-aminopyrimidin-5-yl)-1H-indazol-1-yl)acetyl)-N-(6-bromopyrazin-2-yl)-2-azabicyclo[3.1.0]hexane-3-carboxamide] yielded an IC50 of under 1 µM. CC(=O)c1nn(CC(=O)N2C[C@H]3C[C@H]3[C@H]2C(=O)Nc2nc(Br)ccc2C)c2ccc(-c3cnc(C)nc3)cc12 [Compound 488, (1R,2S,5S)-3-(2-(3-Acetyl-5-(2-methylpyrimidin-5-yl)-1H-indazol-1-yl)acetyl)-N-(6-bromo-3-methylpyridin-2-yl)-3-azabicyclo[3.1.0]hexane-2-carboxamide] gave an IC50 of under 1 µM. With CC(=O)c1nn(CC(=O)N2C[C@H](F)C[C@H]2C(=O)Nc2cccc(Br)n2)c2ccc(-c3cnc(CNC(=O)OC(C)(C)C)nc3)cc12 [Compound 403, tert-butyl ((5-(3-Acetyl-1-(2-((2S,4R)-2-((6-bromopyridin-2-yl)carbamoyl)-4-fluoropyrrolidin-1-yl)-2-oxoethyl)-1H-indazol-5-yl)pyrimidin-2-yl)methyl)carbamate] the IC50 was under 1 µM. CC(=O)c1nn(CC(=O)N2[C@@H]3C[C@@H]3C[C@H]2C(=O)Nc2cncc(Br)n2)c2ccc(-c3cnc(C4CC4)nc3)cc12 [Compound 356, (1R,3S,5R)-2-(2-(3-acetyl-5-(2-cyclopropylpyrimidin-5-yl)-1H-indazol-1-yl)acetyl)-N-(6-bromopyrazin-2-yl)-2-azabicyclo[3.1.0] hexane-3-carboxamide] gave an IC50 of under 1 µM. With CC(=O)c1nn(CC(=O)N2CC(F)(CN)C[C@H]2C(=O)Nc2cccc(Br)n2)c2ccc(-c3cnc(C)nc3)cc12 (stereo partly drawn) [Compound 399, (2S)-1-(2-(3-acetyl-5-(2-methylpyrimidin-5-yl)-1H-indazol-1-yl)acetyl)-4-(aminomethyl)-N-(6-bromopyridin-2-yl)-4-fluoropyrrolidine-2-carboxamide] the IC50 was under 1 µM. For Cc1cccc(NC(=O)[C@@H]2[C@H]3CC[C@H](C3)N2C(=O)Cn2cc(C(N)=O)c3cc(-c4cnc(C)nc4)ccc32)n1 [Compound 473, 1-(2-((1R,3S,4S)-3-(6-Methylpyridin-2-ylcarbamoyl)-2-azabicyclo[2.2.1]heptan-2-yl)-2-oxoethyl)-5-(2-methylpyrimidin-5-yl)-1H-indole-3-carboxamide], the IC50 was over 10 µM.

Source: patent US10287301B2 (Achillion Pharmaceuticals, Inc., priority 2015, dated 2019)
